Source: US10233195B2, “Anti-fibrotic pyridinones” (InterMune, Inc., priority 2014, dated 2019)

System: TGF-b induced Endothelin-1 production
Experiment: ET-1 assay: inhibitory effect on TGF-b induced endothelin-1 production
Assay type: cell-based
Settings: Homo sapiens, Fibroblast; fibroblasts, stimulant (TGFb, serum, LPA etc), ET-1 in media by ELISA, 4-parameter fit
Protocol: Assay of Inhibitory Effect on TGF-b Induced Endothelin-1 Production
Fibroblasts (primary human lung and dermal, HFL-1, 3T3 etc) are seeded in 96-well plates at ˜15000 cells/well and serum starved for 0-48 hours. After media exchange, compounds serially diluted in DMSO are added to the cells. After a brief incubation of ˜30 min, stimulants (TGFb, serum, LPA etc) are added followed by further incubation for 16-48 hours. Media is then harvested and stored frozen in plate format for later endothelin-1 (ET-1) determination by ELISA. Toxicity measurements are made using the ATPlite kit (Perkin-Elmer). ET-1 is quantified using an ELISA kit (R&D Systems). The amount of ET-1 produced in the assay wells are back-calculated using the ELISA standard. The ability of a compound to inhibit ET-1 production is typically analyzed by fitting dose-response curves to a 4-parameter logistic function to obtain an EC50 value. A measure of cytotoxicity (CC50) is likewise reported from the same experiment using the ATPlite data.
Compounds of some embodiments were prepared according to synthetic methods described herein and assay data obtained for EC50 against ET-1. The assay data obtained is presented in Table 2, in which A=less than 50 μM, B=greater than or equal to 50 μM and less than or equal to 200 μM; and C=greater than 200 μM.

Row | Compound | EC50 [µM]
1 | CC(=O)c1ccc(=O)n(-c2cccc(C(F)(F)F)c2)c1 [Compound 11] | > 200
2 | CC(=O)c1ccc(=O)n(-c2ccc(Cl)cc2)c1 [Compound 12] | > 200
3 | COc1cccc(-n2cc(C(C)=O)ccc2=O)c1 [Compound 14] | > 200
4 | CC(=O)c1ccc(=O)n(-c2cccc(F)c2)c1 [Compound 15] | > 200
5 | CC(=O)Nc1cccc(-n2cc(C(C)=O)ccc2=O)c1 [Compound 18] | > 200
6 | CC(=O)c1ccc(=O)n(-c2ccccc2Cl)c1 [Compound 19] | 50 to 200
7 | COCCOc1ccc(-n2cc(-c3ccc(F)cc3)c(C)cc2=O)cc1 [Compound 23] | 50 to 200
8 | COCCOc1ccc(-n2cc(-c3cn[nH]c3)c(C)cc2=O)cc1 [Compound 24] | > 200
9 | COCCOc1ccc(-n2cc(-c3cnn(C)c3)c(C)cc2=O)cc1 [Compound 25] | > 200
10 | COCCOc1ccc(-n2cc(-c3ccccc3)c(C)cc2=O)cc1 [Compound 26] | < 50
11 | O=c1ccc2c(n1-c1ccccc1)CCC2 [Compound 27] | > 200
12 | O=c1c2c(c(-c3ccc(F)cc3)cn1-c1ccc(OC(F)(F)F)cc1)CCCC2 [Compound 32] | > 200
13 | Cn1cc(-c2cn(-c3ccc(OC(F)(F)F)cc3)c(=O)c3c2CCCC3)cn1 [Compound 33] | < 50
14 | O=c1c2c(c(-c3cccc(F)c3)cn1-c1ccc(OC(F)(F)F)cc1)CCCC2 [Compound 34] | < 50
15 | CCOc1ccc(-n2cc(-c3cnn(C)c3)c3c(c2=O)CCCC3)c(C)c1 [Compound 35] | < 50
16 | CCOc1ccc(-n2cc(-c3cn[nH]c3)c3c(c2=O)CCCC3)c(C)c1 [Compound 36] | < 50
17 | O=c1c2c(c(-c3cn[nH]c3)cn1-c1ccc(OC(F)(F)F)cc1)CCCC2 [Compound 37] | 50 to 200
18 | O=c1c2ccc(C(F)(F)F)nc2c(-c2ccc(F)cc2)cn1-c1ccc(OC(F)(F)F)cc1 [Compound 38] | > 200
19 | Cn1cc(-c2cn(-c3ccc(OC(F)(F)F)cc3)c(=O)c3ccc(C(F)(F)F)nc23)cn1 [Compound 39] | < 50
20 | O=c1c2nsnc2c(-c2ccc(F)cc2)cn1-c1ccc(OC(F)(F)F)cc1 [Compound 40] | > 200
21 | O=c1c2cccnc2c(-c2ccc(F)cc2)cn1-c1ccc(OC(F)(F)F)cc1 [Compound 42] | > 200

Row | Compound | EC50 [µM]
22 | Cn1cc(-c2cn(-c3ccc(OC(F)(F)F)cc3)c(=O)c3c2NCCC3)cn1 [Compound 44] | > 200
23 | O=c1c2c(c(-c3ccc(F)cc3)cn1-c1ccc(OC(F)(F)F)cc1)NCCC2 [Compound 45] | > 200
24 | O=c1c2ncn(Cc3ccccc3)c2c(-c2ccc(F)cc2)cn1-c1ccc(OC(F)(F)F)cc1 [Compound 54] | > 200
25 | Cn1cc(-c2cn(-c3ccc(OC(F)(F)F)cc3)c(=O)c3ncn(Cc4ccccc4)c23)cn1 [Compound 55] | > 200
26 | O=c1c2nc[nH]c2c(-c2ccc(F)cc2)cn1-c1ccc(OC(F)(F)F)cc1 [Compound 56] | > 200
27 | Cn1cc(-c2cn(-c3ccc(OC(F)(F)F)cc3)c(=O)c3nc[nH]c23)cn1 [Compound 57] | > 200
28 | CCOc1ccc(-n2cc(-c3ccc(F)cc3)c3nccnc3c2=O)c(C)c1 [Compound 62] | > 200
29 | O=c1ccc(C2CCCC2)cn1-c1ccccc1 [Compound 64] | 50 to 200
30 | O=c1ccc(C2CCC2)cn1-c1ccccc1 [Compound 65] | > 200
31 | O=c1ccc(C2CCCCC2)cn1-c1ccccc1 [Compound 66] | 50 to 200
32 | CC(=O)n1cc(-c2ccc(=O)n(-c3ccccc3)c2)cn1 [Compound 67] | > 200
33 | CCCCOC(=O)n1cc(-c2ccc(=O)n(-c3ccccc3)c2)cn1 [Compound 74] | 50 to 200
34 | O=c1ccc(-c2ccc(F)cc2)cn1CCc1ccccc1 [Compound 77] | 50 to 200
35 | Cc1ccc(=O)n(Cc2ccccc2)c1 [Compound 78] | > 200
36 | O=c1ccc(-c2ccc(F)cc2)cn1Cc1ccccc1 [Compound 79] | < 50
37 | O=C1Cc2ccccc2N1c1ccc(OC(F)(F)F)cc1 [Compound 81] | 50 to 200
38 | Cc1ccc2c(c1)CC(=O)N2c1ccc(OC(F)(F)F)cc1 [Compound 82] | > 200
39 | C[C@H]1CCC(=O)N(c2ccccc2)C1 [Compound 83] | > 200
40 | C[C@@H]1CCC(=O)N(c2ccccc2)C1 [Compound 84] | > 200
41 | COc1cc(=O)n(-c2ccc(OC(F)(F)F)cc2)cc1-c1ccc(F)cc1 [Compound 85] | > 200
42 | Nc1cc(=O)n(-c2ccc(OC(F)(F)F)cc2)cc1-c1ccc(F)cc1 [Compound 88] | 50 to 200

Row | Compound | EC50 [µM]
43 | O=c1cc(NCc2ccccc2)c(-c2ccc(F)cc2)cn1-c1ccc(OC(F)(F)F)cc1 [Compound 89] | > 200
44 | CNc1cc(=O)n(-c2ccc(OC(F)(F)F)cc2)cc1-c1ccc(F)cc1 [Compound 90] | > 200
45 | O=c1cc(OCc2ccccc2)c(-c2ccc(F)cc2)cn1-c1ccc(OC(F)(F)F)cc1 [Compound 91] | > 200
46 | O=c1cc(OCCN2CCOCC2)c(-c2ccc(F)cc2)cn1-c1ccc(OC(F)(F)F)cc1 [Compound 92] | 50 to 200
47 | O=c1cc(OCCN2CCCC2)c(-c2ccc(F)cc2)cn1-c1ccc(OC(F)(F)F)cc1 [Compound 93] | < 50
48 | O=c1cc(OCCN2CCS(=O)(=O)CC2)c(-c2ccc(F)cc2)cn1-c1ccc(OC(F)(F)F)cc1 [Compound 94] | > 200
49 | CN1CCC(Oc2cc(=O)n(-c3ccc(OC(F)(F)F)cc3)cc2-c2ccc(F)cc2)CC1 [Compound 95] | < 50
50 | COCCOc1cc(=O)n(-c2ccc(OC(F)(F)F)cc2)cc1-c1ccc(F)cc1 [Compound 96] | > 200
51 | O=C1CCCN1CCOc1cc(=O)n(-c2ccc(OC(F)(F)F)cc2)cc1-c1ccc(F)cc1 [Compound 97] | > 200
52 | O=C1COCCN1CCOc1cc(=O)n(-c2ccc(OC(F)(F)F)cc2)cc1-c1ccc(F)cc1 [Compound 98] | 50 to 200
53 | O=c1cc(OC2CCS(=O)(=O)CC2)c(-c2ccc(F)cc2)cn1-c1ccc(OC(F)(F)F)cc1 [Compound 99] | < 50
54 | CN1CCN(CCOc2cc(=O)n(-c3ccc(OC(F)(F)F)cc3)cc2-c2ccc(F)cc2)CC1 [Compound 100] | < 50
55 | O=c1cc(Oc2ccccc2)c(-c2ccc(F)cc2)cn1-c1ccc(OC(F)(F)F)cc1 [Compound 102] | > 200
56 | O=C(Nc1cc(=O)n(-c2ccc(OC(F)(F)F)cc2)cc1-c1ccc(F)cc1)OCc1ccccc1 [Compound 103] | > 200
57 | CC(=O)Nc1cc(=O)n(-c2ccc(OC(F)(F)F)cc2)cc1-c1ccc(F)cc1 [Compound 104] | > 200
58 | CCCOC(=O)Nc1cc(=O)n(-c2ccc(OC(F)(F)F)cc2)cc1-c1ccc(F)cc1 [Compound 105] | > 200
59 | CCC(=O)Nc1cc(=O)n(-c2ccc(OC(F)(F)F)cc2)cc1-c1ccc(F)cc1 [Compound 106] | > 200
60 | CCCCC(=O)Nc1cc(=O)n(-c2ccc(OC(F)(F)F)cc2)cc1-c1ccc(F)cc1 [Compound 107] | > 200
61 | CC(C)C(=O)Nc1cc(=O)n(-c2ccc(OC(F)(F)F)cc2)cc1-c1ccc(F)cc1 [Compound 108] | > 200
62 | CCCC(=O)Nc1cc(=O)n(-c2ccc(OC(F)(F)F)cc2)cc1-c1ccc(F)cc1 [Compound 110] | > 200
63 | COC(=O)Nc1cc(=O)n(-c2ccc(OC(F)(F)F)cc2)cc1-c1ccc(F)cc1 [Compound 111] | > 200
